Assay results: patent US20140315883A1, “6H-IMIDAZO[1,5-a]PYRROLO[2,3-e]PYRAZINE COMPOUNDS” (ABBVIE INC., priority 2013, published 2014)

System: not given
Assay: not given
Conditions: patients in clinical trials; cited from earlier work

For `CCN(CC)CCNC(=O)c1c(C)[nH]c(/C=C2\C(=O)Nc3ccc(F)cc32)c1C` [sunitibnib, sunitinib], the risk for hypertension is given as “increased risk for hypertension”.

Biological target: T1, Syk (Homo sapiens, UniProt P43405)
T1 construct: Purified Syk catalytic domain (aa 356-635 with a C-terminal His-tag purified in-house); His-tag (C); made in house
Assay: In vitro Syk kinase activity measured by trFRET
Format: biochemical
Conditions: Syk catalytic domain, 0.001 mM ATP
Protocol: In Vitro Syk Kinase Activity Measured by Time-Resolved Fluorescence Resonance Energy Transfer (trFRET)
After about 60 min incubation at rt, the reaction was quenched by addition of EDTA (final concentration: 100 mM) and developed by addition of revelation reagents (final approximate concentrations: 30 mM HEPES pH 7.0, 0.06% BSA, 0.006% Tween-20, 0.24 M KF, 80 ng/mL PT66K (europium labeled anti-phosphotyrosine antibody cat #61T66KLB Cisbio, Bedford, Mass.) and 0.6 μg/mL SAXL (Phycolink streptavidin-allophycocyanin acceptor, cat #PJ25S, Prozyme, San Leandro, Calif.). The developed reaction was incubated in the dark either at about 4° C. for about 14 h or for about 60 min at rt, then read via a time-resolved fluorescence detector (Rubystar, BMG) using a 337 nm laser for excitation and monitoring emission wavelengths at 665 nm. Within the linear range of the assay, the observed signal at 665 nm was directly related to phosphorylated product and can be used to calculate the IC50 values.

`CC(=O)N1C[C@H](O)C[C@@H]1c1nc(-c2ccc(N3CCOC(C)C3)cc2)c2cnc3[nH]ccc3n12` (stereo partly drawn) [F.1.7, 1-((2R,4R)-4-hydroxy-2-(3-(4-(2-methylmorpholino)phenyl)-6H-imidazo[1,5-a]pyrrolo[2,3-e]pyrazin-1-yl)pyrrolidin-1-yl)ethanone] and `CC(=O)N1C[C@H](O)C[C@@H]1c1nc(-c2ccc(N3CCC(F)(F)CC3)cc2)c2cnc3[nH]ccc3n12` [F.1.8, 1-((2R,4R)-2-(3-(4-(4,4-difluoropiperidin-1-yl)phenyl)-6H-imidazo[1,5-a]pyrrolo[2,3-e]pyrazin-1-yl)-4-hydroxypyrrolidin-1-yl)ethanone] cannot be ordered by IC50: < 10 nM for the first, < 10 nM for the second.

`CC(=O)N1C[C@H](O)C[C@@H]1c1nc(-c2ccc(N3CC(F)(F)C3)cc2)c2cnc3[nH]ccc3n12` [F.1.9, 1-((2R,4R)-2-(3-(4-(3,3-difluoroazetidin-1-yl)phenyl)-6H-imidazo[1,5-a]pyrrolo[2,3-e]pyrazin-1-yl)-4-hydroxypyrrolidin-1-yl)ethanone] and `CC(=O)N1C[C@H](O)C[C@@H]1c1nc(-c2ccc(N3CCOCC3)cc2)c2cnc3[nH]cc(Cl)c3n12` [F.1.10, 1-((2R,4R)-2-(8-chloro-3-(4-morpholinophenyl)-6H-imidazo[1,5-a]pyrrolo[2,3-e]pyrazin-1-yl)-4-hydroxypyrrolidin-1-yl)ethanone] cannot be ordered by IC50: < 10 nM for the first, < 10 nM for the second.

`CCOc1ccc(-c2nc([C@H]3C[C@@H](O)CN3C(C)=O)n3c2cnc2[nH]cc(Cl)c23)cc1` [F.1.11, 1-((2R,4R)-2-(8-chloro-3-(4-ethoxyphenyl)-6H-imidazo[1,5-a]pyrrolo[2,3-e]pyrazin-1-yl)-4-hydroxypyrrolidin-1-yl)ethanone] and `CC(=O)N1C[C@H](O)C[C@@H]1c1nc(-c2ccc(OCCN3CCOCC3)cc2)c2cnc3[nH]ccc3n12` [F.1.12, 1-((2R,4R)-4-hydroxy-2-(3-(4-(2-morpholinoethoxy)phenyl)-6H-imidazo[1,5-a]pyrrolo[2,3-e]pyrazin-1-yl)pyrrolidin-1-yl)ethanone] fall in the same range of IC50: 10 to 30 nM for the first, 10 to 30 nM for the second.

Compared with `COc1ccc(-c2nc([C@H]3C[C@@H](O)CN3C(C)=O)n3c2cnc2[nH]cc(C)c23)cc1` [F.1.14], `CC(=O)N1C[C@H](O)C[C@@H]1c1nc(-c2ccc(C(C)(C)O)cc2)c2cnc3[nH]ccc3n12` [F.1.15, 1-((2R,4R)-4-hydroxy-2-(3-(4-(2-hydroxypropan-2-yl)phenyl)-6H-imidazo[1,5-a]pyrrolo[2,3-e]pyrazin-1-yl)pyrrolidin-1-yl)ethanone] is lower in IC50: 30 to 100 nM for the first, < 10 nM for the second. The second is the more potent here.

`CC(=O)N1C[C@H](O)C[C@@H]1c1nc(-c2ccc(C(C)(C)C#N)cc2)c2cnc3[nH]ccc3n12` [F.1.16, 2-(4-(1-((2R,4R)-1-acetyl-4-hydroxypyrrolidin-2-yl)-6H-imidazo[1,5-a]pyrrolo[2,3-e]pyrazin-3-yl)phenyl)-2-methylpropanenitrile] and `CC(=O)N1C[C@H](O)C[C@@H]1c1nc(-c2ccc(N3CCOCC3)cc2)c2cnc3[nH]ccc3n12` [F.1.17, 1-((2R,4R)-4-hydroxy-2-(3-(4-morpholinophenyl)-6H-imidazo[1,5-a]pyrrolo[2,3-e]pyrazin-1-yl)pyrrolidin-1-yl)ethanone] cannot be ordered by IC50: < 10 nM for the first, < 10 nM for the second.

Compared with `CC(=O)N1C[C@H](O)C[C@@H]1c1nc(-c2ccc(C3CCOCC3)cc2)c2cnc3[nH]ccc3n12` [F.1.18, 1-((2R,4R)-4-hydroxy-2-(3-(4-(tetrahydro-2H-pyran-4-yl)phenyl)-6H-imidazo[1,5-a]pyrrolo[2,3-e]pyrazin-1-yl)pyrrolidin-1-yl)ethanone], `CC(=O)N1C[C@H](O)C[C@@H]1c1nc(-c2ccc3c(c2)CCCO3)c2cnc3[nH]ccc3n12` [F.1.19, 1-((2R,4R)-2-(3-(chroman-6-yl)-6H-imidazo[1,5-a]pyrrolo[2,3-e]pyrazin-1-yl)-4-hydroxypyrrolidin-1-yl)ethanone] is higher in IC50: < 10 nM for the first, 10 to 30 nM for the second. The first is the more potent here.

First: COc1ccc(-c2nc([C@H]3C[C@@H](O)CN3C(C)=O)n3c2cnc2[nH]ccc23)cc1OC [F.1.20, 1-((2R,4R)-2-(3-(3,4-dimethoxyphenyl)-6H-imidazo[1,5-a]pyrrolo[2,3-e]pyrazin-1-yl)-4-hydroxypyrrolidin-1-yl)ethanone]
Second: COCCOc1ccc(-c2nc([C@H]3C[C@@H](O)CN3C(C)=O)n3c2cnc2[nH]ccc23)cc1 [F.1.21, 1-((2R,4R)-4-hydroxy-2-(3-(4-(2-methoxyethoxy)phenyl)-6H-imidazo[1,5-a]pyrrolo[2,3-e]pyrazin-1-yl)pyrrolidin-1-yl)ethanone]
The IC50 of the first is lower: < 10 nM for the first, 10 to 30 nM for the second.

`COc1ccc(-c2nc([C@H]3C[C@@H](O)CN3C(C)=O)n3c2cnc2[nH]ccc23)cc1C` [F.1.22, 1-((2R,4R)-4-hydroxy-2-(3-(4-methoxy-3-methylphenyl)-6H-imidazo[1,5-a]pyrrolo[2,3-e]pyrazin-1-yl)pyrrolidin-1-yl)ethanone] and `CC(=O)N1C[C@H](O)C[C@@H]1c1nc(-c2ccc(OC(C)C)cc2)c2cnc3[nH]ccc3n12` [F.1.23, 1-((2R,4R)-4-hydroxy-2-(3-(4-isopropoxyphenyl)-6H-imidazo[1,5-a]pyrrolo[2,3-e]pyrazin-1-yl)pyrrolidin-1-yl)ethanone] fall in the same range of IC50: 10 to 30 nM for the first, 10 to 30 nM for the second.

First: CC(=O)N1C[C@H](O)C[C@@H]1c1nc(-c2ccc3c(c2)OCO3)c2cnc3[nH]ccc3n12 [F.1.24, 1-((2R,4R)-2-(3-(benzo[d][1,3]dioxol-5-yl)-6H-imidazo[1,5-a]pyrrolo[2,3-e]pyrazin-1-yl)-4-hydroxypyrrolidin-1-yl)ethanone]
Second: COc1ccc(-c2nc([C@H]3C[C@@H](O)CN3C(C)=O)n3c2cnc2[nH]ccc23)cc1F [F.1.26, 1-((2R,4R)-2-(3-(3-fluoro-4-methoxyphenyl)-6H-imidazo[1,5-a]pyrrolo[2,3-e]pyrazin-1-yl)-4-hydroxypyrrolidin-1-yl)ethanone]
The IC50 of the first is higher: > 100 nM for the first, 30 to 100 nM for the second. The second is the more potent here.

Compared with `CC(=O)N1C[C@H](O)C[C@@H]1c1nc(-c2ccc(C3(O)CCC3)cc2)c2cnc3[nH]ccc3n12` [F.1.27, 1-((2R,4R)-4-hydroxy-2-(3-(4-(1-hydroxycyclobutyl)phenyl)-6H-imidazo[1,5-a]pyrrolo[2,3-e]pyrazin-1-yl)pyrrolidin-1-yl)ethanone], `CCOc1ccc(-c2nc([C@H]3C[C@@H](O)CN3C(C)=O)n3c2cnc2[nH]ccc23)cc1C` [F.1.28, 1-((2R,4R)-2-(3-(4-ethoxy-3-methylphenyl)-6H-imidazo[1,5-a]pyrrolo[2,3-e]pyrazin-1-yl)-4-hydroxypyrrolidin-1-yl)ethanone] is lower in IC50: 10 to 30 nM for the first, < 10 nM for the second. The second is the more potent here.

`CC(=O)N1C[C@H](O)C[C@@H]1c1nc(-c2ccc3c(c2)NCCO3)c2cnc3[nH]ccc3n12` [F.1.29, 1-((2R,4R)-2-(3-(3,4-dihydro-2H-benzo[b][1,4]oxazin-6-yl)-6H-imidazo[1,5-a]pyrrolo[2,3-e]pyrazin-1-yl)-4-hydroxypyrrolidin-1-yl)ethanone] and `CC(=O)N1C[C@H](O)C[C@@H]1c1nc(-c2ccc3c(c2)NCCC3)c2cnc3[nH]ccc3n12` [F.1.30, 1-((2R,4R)-4-hydroxy-2-(3-(1,2,3,4-tetrahydroquinolin-7-yl)-6H-imidazo[1,5-a]pyrrolo[2,3-e]pyrazin-1-yl)pyrrolidin-1-yl)ethanone] fall in the same range of IC50: 10 to 30 nM for the first, 10 to 30 nM for the second.

`CC(=O)N1C[C@H](O)C[C@@H]1c1nc(-c2ccc(OC3CC3)cc2)c2cnc3[nH]ccc3n12` [F.1.31] and “(2R,4R)-2-(3-(chroman-6-yl)-6H-imidazo[1,5-a]pyrrolo[2,3-e]pyrazin-1-yl)-4-hydroxypyrrolidine-1-carboxamide [Example #6]” fall in the same range of IC50: 10 to 30 nM for the first, 10 to 30 nM for the second.
